Test results: patent publication US20220054548A1, “MIRNA FOR USE IN THERAPY” (King's College London, priority 2018, published 2022)
Entries after “also recorded” stand apart in the source; their conditions may differ.

Key:
[1] = test system: miR-142-deficient TREGS; assay: Co-culture TREG suppression assay ex vivo after 4 weeks of in vivo cilostamide treatment; design: species or system mouse; settings: TREGS isolated ex vivo after 4 weeks of cilostamide treatment
Text: In vitro Suppression Assay. CD4^+ T cells were isolated from pooled peripheral lymph nodes and spleens of 5-6 week old mice using CD4 microbeads (Miltenyi Biotec). Cells were labeled with fluorochrome-conjugated anti-mouse antibodies to CD4, CD62L, CD44 and CD25 (eBioscience) and sorted using a BD FACSAria II flow cytometric cell sorter (BD Biosciences) to >95% purity for YFP^+ CD4^+ cells (TREGS) and naïve (CD25−, CD62L+, CD44−) CD4+ T cells (TEFFS). An aliquot of the sorted TREG population was stained with Live-Dead and anti-CD25 antibodies, fixed and permeabilised, then stained for FoxP3 and acquired on a flow cytometer (as before) to confirm purity. […] After 72 hours in culture, the cells were stained with fluorochrome-conjugated anti-mouse antibodies to Live/Dead (Life Technologies) and then proliferation of the TEFFS was assessed by flow cytometry based on Cell Trace Violet dilution (excluding YFP+ and dead cells). The numbers of non-proliferating cells (events in the first peak) and precursors of proliferating cells were calculated using standard formulae. Percentage suppression (S) of proliferation was calculated using the formula: […]
In vivo cilostamide treatment. […] The mice were weighed every other day and monitored for signs of disease. […]

[2] = test system: TREG^Δ142 mice; assay: In vivo cilostamide treatment of TREG^Δ142 mice (weight, survival); design: species or system mouse; settings: 6.4 mg/kg intra-peritoneal cilostamide on alternate days from 8 weeks of age
Protocol: In vivo cilostamide treatment. Littermate TREG^Δ142 and WT mice were treated from 8 weeks of age with alternate day intra-peritoneal injections of either 6.4 mg/kg cilostamide (Sigma) in PBS 10% DMSO, or a control solution of PBS 10% DMSO. The mice were weighed every other day and monitored for signs of disease. A proportion of mice were sacrificed after 4 weeks of treatment and TREGS were isolated directly ex vivo for use in an in vitro co-culture suppression assay (as before). A proportion of mice were kept alive for as long as possible (either until they lost more than 15% of their body weight and had to be euthanised, or until the end of the experiment).

[3] = test system: TREGS from WT and TREG^Δ142 mice; assay: In vitro co-culture suppression assay after in vitro cilostamide treatment; type: cell-based, mouse
Text: In vitro Suppression Assay. CD4^+ T cells were isolated from pooled peripheral lymph nodes and spleens of 5-6 week old mice using CD4 microbeads (Miltenyi Biotec). Cells were labeled with fluorochrome-conjugated anti-mouse antibodies to CD4, CD62L, CD44 and CD25 (eBioscience) and sorted using a BD FACSAria II flow cytometric cell sorter (BD Biosciences) to >95% purity for YFP^+ CD4^+ cells (TREGS) and naïve (CD25−, CD62L+, CD44−) CD4+ T cells (TEFFS). An aliquot of the sorted TREG population was stained with Live-Dead and anti-CD25 antibodies, fixed and permeabilised, then stained for FoxP3 and acquired on a flow cytometer (as before) to confirm purity. The TEFFS were labeled with 10 μM Cell Trace Violet (Life Technologies) according to the manufacturer's instructions, washed and then cultured in a 96-well U-bottom plate alone or with TREGS at ratios ranging from (TEFF:TREG) 1:1 to 32:1, in triplicate, in the presence of anti-CD3 and anti-CD28 Dynabeads (Life Technologies) at a bead:cell ratio of 2:1, and RPMI 1640 cell culture medium (Gibco, Life Technologies) supplemented with 10% fetal calf serum, 50 μM 2-Mercapto-ethanol, […] L-glutamine, pyruvate, HEPES, non-essential amino acids and antibiotics at 37° C. 5% CO2. All 4 possible combinations of TREGS and TEFFS from each group were utilised. After 72 hours in culture, the cells were stained with fluorochrome-conjugated anti-mouse antibodies to Live/Dead (Life Technologies) and then proliferation of the TEFFS was assessed by flow cytometry based on Cell Trace Violet dilution (excluding YFP+ and dead cells). The numbers of non-proliferating cells (events in the first peak) and precursors of proliferating cells were calculated using standard formulae. Percentage suppression (S) of proliferation was calculated using the formula: […]
In vitro Cilostamide treatment. […] They were then cultured in the presence of 10 μM cilostamide (Sigma Aldrich), or equivalent PBS/DMSO control for 48 hours before being washed twice, counted and used in an in vitro co-culture suppression assay, as above. […]

SMILES: CN(C(=O)CCCOc1ccc2[nH]c(=O)ccc2c1)C1CCCCC1 [cilostamide]
- Suppressive activity of miR-142-deficient TREGS [1]: fully restored suppressive activity
- Lethal autoimmune disease (weight and survival) [2]: prevented lethal autoimmune disease
- TREG suppressive function (suppression of TEFF proliferation) ([3]; TEFFS pre-treated with cilostamide): No rescue of suppressive function
- TREG suppressive function (suppression of TEFF proliferation) ([3]; TREG^Δ142 TREGS pre-treated with cilostamide 10 μM prior to co-culture with untreated TEFFS in the absence of cilostamide): restored the suppressive function; also recorded: no significant difference
- TREG suppressive capacity ([3]; WT TREGS treated with cilostamide in vitro, compared with WT TREGS): marginal augmentation of ex vivo suppressive capacity
